From patent US8927500B2, “Peptidomimetic macrocycles” (Aileron Therapeutics, Inc., priority 2012, dated 2015)
pIC50, pKi: −log10 of the molar value. Like-named read-outs stand apart in the source and are kept apart here.

What was measured:
[1] = molecular target: T1, MDMX (Homo sapiens, UniProt O15151); experiment: Competitive fluorescence polarization assay for MDMX; assay type: binding; conditions: competitive FP assay
T1 sequence (O15151 1-125): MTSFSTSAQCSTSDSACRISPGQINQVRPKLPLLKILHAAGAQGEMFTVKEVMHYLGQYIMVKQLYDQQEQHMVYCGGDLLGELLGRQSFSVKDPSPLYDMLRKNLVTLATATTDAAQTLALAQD
Description: Dilute MDMX (In-house, 40 kD) into FP buffer (High salt buffer-200 mM Nacl, 5 mM CHAPS, pH 7.5.) to make 300 nM (2×) working stock solution. • 2. […] Dilute 1 mM (in 100% DMSO) of FAM labeled linear peptide with DMSO to 100 μM (dilution 1:10). Then, dilute from 100 μM to 10 μM with water (dilution 1:10) and then dilute with FP buffer from 10 μM to 40 nM (dilution 1:250). This is the working solution which will be a 10 nM concentration in well (dilution 1:4). Keep the diluted FAM labeled peptide in the dark until use. • 4. […] Dilute 10 mM (in 100% DMSO) with DMSO to 5 mM (dilution 1:2). Then, dilute from 5 mM to 500 μM with H2O (dilution 1:10) and then dilute with FP buffer from 500 μM to 20 μM (dilution 1:25). […] Transfer 10 μl of serial diluted unlabeled peptides to each well which is filled with 20 μl of 300 nM of protein. • 7. Add 10 μl of 10 nM (4×) of FAM labeled peptide into each well and incubate for 3 hr to read.

[2] = molecular target: MDM2 (Homo sapiens, UniProt Q00987); experiment: Competitive fluorescence polarization assay for MDM2; assay type: binding; conditions: competitive FP assay, MDM2
Chain of MDM2 (Q00987 1-125): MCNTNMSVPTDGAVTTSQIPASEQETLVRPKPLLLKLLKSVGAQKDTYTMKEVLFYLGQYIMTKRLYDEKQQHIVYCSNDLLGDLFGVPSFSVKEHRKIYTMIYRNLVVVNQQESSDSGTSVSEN

Row | Structure (SMILES) | pIC50 ([1]; read-out: IC50 (MDMX)) | pKi ([1]; read-out: Ki (MDMX)) | pIC50 ([2]; read-out: IC50 (MDM2)) | pKi ([2]; read-out: Ki (MDM2)) | pIC50 ([1]; IC50 (MDMX)) | pKi ([1]; Ki (MDMX)) | pIC50 ([2]; IC50 (MDM2)) | pKi ([2]; Ki (MDM2))
1 | CCCC[C@H](NC(=O)[C@H](C)NC(=O)[C@H](C)NC(=O)[C@]1(C)CCCC=CCCCCCC[C@@](C)(NC(=O)[C@H](Cc2ccccc2)NC(=O)[C@@H](NC(=O)[C@H](CC(C)C)NC(C)=O)[C@@H](C)O)C(=O)N[C@@H](C)C(=O)N[C@@H](Cc2ccc(O)cc2)C(=O)N[C@@H](Cc2c[nH]c3ccccc23)C(=O)N[C@@H](C)C(=O)N[C@@H](CCC(N)=O)C(=O)N[C@@H](CC(C)C)C(=O)N1)C(=O)N[C@H](CC(C)C)C(N)=O (single isomer, unassigned) [compound 85] | 6.00 to 7.00 | 7.00 to 8.00 | 7.00 to 8.00 | > 8.00 |  |  |  | 
2 | CC(=O)N[C@@H](CC(C)C)C(=O)N[C@H](C(=O)N[C@@H](Cc1ccccc1)C(=O)N[C@]1(C)CCCCCCC=CCCC[C@@](C)(C(=O)N[C@@H](CO)C(=O)N[C@H](C(=O)NCC(N)=O)C(C)C)NC(=O)[C@H](CC(C)C)NC(=O)[C@H](CCC(N)=O)NC(=O)[C@H](C)NC(=O)[C@H](Cc2c[nH]c3ccccc23)NC(=O)[C@H](Cc2ccc(O)cc2)NC(=O)[C@H](C(C)C)NC1=O)[C@@H](C)O (single isomer, unassigned) [compound 146] | 6.00 to 7.00 | 7.00 to 8.00 | > 8.00 | > 8.00 |  |  |  | 
3 | CC(=O)N[C@@H](CC(C)C)C(=O)N[C@H](C(=O)N[C@@H](Cc1cccc(Cl)c1)C(=O)N[C@]1(C)CCCCCCC=CCCC[C@@](C)(C(=O)N[C@@H](CO)C(=O)N[C@@H](C)C(=O)N[C@@H](C)C(N)=O)NC(=O)[C@H](CC(C)C)NC(=O)[C@H](CCC(N)=O)NC(=O)[C@H](C)NC(=O)[C@H](Cc2c[nH]c3ccccc23)NC(=O)[C@H](Cc2ccc(O)cc2)NC(=O)[C@H](CCC(=O)O)NC1=O)[C@@H](C)O (single isomer, unassigned) [compound 156] | 6.00 to 7.00 | 7.00 to 8.00 | > 8.00 | > 8.00 |  |  |  | 
4 | CC(=O)N[C@@H](CC(C)C)C(=O)N[C@H](C(=O)N[C@@H](Cc1ccccc1)C(=O)N[C@]1(C)CCCCCCC=CCCC[C@@](C)(C(=O)N[C@@H](CO)C(=O)N[C@@H](C)C(=O)N[C@@H](C)C(N)=O)NC(=O)[C@H](CC(C)C)NC(=O)[C@H](CCC(N)=O)NC(=O)[C@H](C)NC(=O)[C@H](Cc2c[nH]c3ccccc23)NC(=O)[C@H](CCC(=O)O)NC(=O)[C@H](C)NC1=O)[C@@H](C)O (single isomer, unassigned) [compound 166] | 6.00 to 7.00 | 7.00 to 8.00 | > 8.00 | > 8.00 |  |  |  | 
5 | CC(=O)N[C@@H](CC(C)C)C(=O)N[C@H](C(=O)N[C@@H](Cc1ccccc1)C(=O)N[C@]1(C)CCCCCCC=CCCC[C@@](C)(C(=O)N[C@@H](CO)C(=O)N[C@@H](C)C(=O)N[C@@H](C)C(N)=O)NC(=O)[C@H](CC(C)C)NC(=O)[C@H](CCC(N)=O)NC(=O)[C@H](C)NC(=O)[C@H](Cc2c[nH]c3ccccc23)NC(=O)[C@H](CO)NC(=O)[C@H](C)NC1=O)[C@@H](C)O (single isomer, unassigned) [compound 167] | 6.00 to 7.00 | 6.00 to 7.00 | 7.00 to 8.00 | > 8.00 |  |  |  | 
6 | CC[C@H](C)[C@H](NC(C)=O)C(=O)N[C@H](C(=O)N[C@@H](Cc1ccccc1)C(=O)N[C@]1(C)CCCCCCC=CCCC[C@@](C)(C(=O)N[C@@H](C)C(=O)N[C@@H](C)C(=O)N[C@H](C(=O)N[C@H](C)C(N)=O)[C@@H](C)CC)NC(=O)[C@H](CC(C)C)NC(=O)[C@H](CCC(N)=O)NC(=O)[C@H](C)NC(=O)[C@H](Cc2c[nH]c3ccccc23)NC(=O)[C@H](Cc2c[nH]cn2)NC(=O)[C@H](CCC(=O)O)NC1=O)[C@@H](C)O (single isomer, unassigned) [compound 173] | 6.00 to 7.00 | 7.00 to 8.00 | > 8.00 | > 8.00 |  |  |  | 
7 | CC[C@H](C)[C@H](NC(C)=O)C(=O)N[C@H](C(=O)N[C@@H](Cc1ccccc1)C(=O)N[C@]1(C)CCCCCCC=CCCC[C@@](C)(C(=O)N[C@@H](C)C(=O)N[C@@H](Cc2c[nH]cn2)C(=O)N[C@@H](Cc2ccccc2)C(=O)N[C@@H](C)C(N)=O)NC(=O)[C@H](CC(C)C)NC(=O)[C@H](CCC(N)=O)NC(=O)[C@H](C)NC(=O)[C@H](Cc2c[nH]c3ccccc23)NC(=O)[C@H](Cc2ccc(O)cc2)NC(=O)[C@H](Cc2ccccc2)NC1=O)[C@@H](C)O (single isomer, unassigned) [compound 185] | < 6.00 | 6.00 to 7.00 | 7.00 to 8.00 | > 8.00 |  |  |  | 
8 | CC[C@H](C)[C@H](NC(C)=O)C(=O)N[C@H](C(=O)N[C@@H](Cc1ccccc1)C(=O)N[C@]1(C)CCCCCCC=CCCC[C@@](C)(C(=O)N[C@@H](C)C(=O)N[C@@H](Cc2c[nH]cn2)C(=O)N[C@@H](Cc2ccccc2)C(=O)N[C@@H](C)C(N)=O)NC(=O)[C@H](CC(C)C)NC(=O)[C@H](CCC(N)=O)NC(=O)[C@H](C)NC(=O)[C@H](Cc2c[nH]c3ccccc23)NC(=O)[C@H](Cc2c[nH]cn2)NC(=O)[C@H](CCC(=O)O)NC1=O)[C@@H](C)O (single isomer, unassigned) [compound 189] | 6.00 to 7.00 | 7.00 to 8.00 | 7.00 to 8.00 | > 8.00 |  |  |  | 
9 | CC[C@H](C)[C@H](NC(C)=O)C(=O)N[C@H](C(=O)N[C@@H](Cc1ccccc1)C(=O)N[C@]1(C)CCCCCCC=CCCC[C@@](C)(C(=O)N[C@@H](C)C(=O)N[C@@H](Cc2c[nH]cn2)C(=O)N[C@@H](Cc2ccccc2)C(=O)N[C@@H](C)C(N)=O)NC(=O)[C@H](CC(C)C)NC(=O)[C@H](CCC(N)=O)NC(=O)[C@H](C(C)C)NC(=O)[C@H](Cc2c[nH]c3ccccc23)NC(=O)[C@H](Cc2c[nH]cn2)NC(=O)[C@H](CCC(=O)O)NC1=O)[C@@H](C)O (single isomer, unassigned) [compound 194] | 6.00 to 7.00 | 6.00 to 7.00 | 7.00 to 8.00 | > 8.00 |  |  |  | 
10 | CC(=O)N[C@@H](CC(C)C)C(=O)N[C@H](C(=O)N[C@@H](Cc1ccccc1)C(=O)N[C@]1(C)CCCCCCC=CCCC[C@@](C)(C(=O)N[C@@H](CO)C(=O)N[C@@H](C)C(=O)N[C@@H](C)C(N)=O)NC(=O)[C@H](CC(C)C)NC(=O)[C@H](C)NC(=O)[C@H](C)NC(=O)[C@H](Cc2c[nH]c3ccccc23)NC(=O)[C@H](CCC(=O)O)NC(=O)[C@H](C)NC1=O)[C@@H](C)O (single isomer, unassigned) [compound 199] |  |  |  |  | 6.00 to 7.00 | 6.00 to 7.00 | 7.00 to 8.00 | > 8.00
11 | CC(=O)N[C@@H](CC(C)C)C(=O)N[C@H](C(=O)N[C@@H](Cc1ccccc1)C(=O)N[C@]1(C)CCCCCCC=CCCC[C@@](C)(C(=O)N[C@@H](CO)C(=O)N[C@@H](C)C(=O)N[C@@H](C)C(N)=O)NC(=O)[C@H](CC(C)C)NC(=O)[C@H](C)NC(=O)[C@H](C)NC(=O)[C@H](Cc2c[nH]c3ccccc23)NC(=O)[C@H](CO)NC(=O)[C@H](C)NC1=O)[C@@H](C)O (single isomer, unassigned) [compound 201] | 6.00 to 7.00 | 6.00 to 7.00 | 7.00 to 8.00 | > 8.00 |  |  |  | 
12 | CC[C@H](C)[C@H](NC(=O)[C@H](Cc1c[nH]cn1)NC(=O)[C@H](C)NC(=O)[C@]1(C)CCCC=CCCCCCC[C@@](C)(NC(=O)[C@H](Cc2ccccc2)NC(=O)[C@@H](NC(=O)[C@H](CC(C)C)NC(C)=O)[C@@H](C)O)C(=O)N[C@@H](CCC(=O)O)C(=O)N[C@@H](Cc2c[nH]cn2)C(=O)N[C@@H](Cc2c[nH]c3ccccc23)C(=O)N[C@@H](C)C(=O)N[C@@H](CCC(N)=O)C(=O)N[C@@H](CC(C)C)C(=O)N1)C(=O)N[C@H](C)C(N)=O (single isomer, unassigned) [compound 206] | 6.00 to 7.00 | 7.00 to 8.00 | 7.00 to 8.00 | > 8.00 |  |  |  | 
13 | CC(=O)N[C@@H](CC(C)C)C(=O)N[C@H](C(=O)N[C@@H](Cc1ccccc1)C(=O)N[C@]1(C)CCCCCCC=CCCC[C@@](C)(C(=O)N[C@@H](C)C(=O)N[C@@H](C)C(=O)N[C@@H](Cc2ccccc2)C(=O)N[C@H](C)C(N)=O)NC(=O)[C@H](CC(C)C)NC(=O)[C@H](CCC(N)=O)NC(=O)[C@H](C)NC(=O)[C@H](Cc2c[nH]c3ccccc23)NC(=O)[C@H](Cc2ccc(O)cc2)NC(=O)[C@H](C)NC1=O)[C@@H](C)O (single isomer, unassigned) [compound 210] | 6.00 to 7.00 | 7.00 to 8.00 | > 8.00 | > 8.00 |  |  |  | 
14 | CC(=O)N[C@@H](CC(C)C)C(=O)N[C@H](C(=O)N[C@@H](Cc1ccccc1)C(=O)N[C@]1(C)CCCCCCC=CCCC[C@@](C)(C(=O)N[C@@H](C)C(=O)N[C@@H](C)C(=O)N[C@H](C(=O)N[C@H](C)C(N)=O)C(C)C)NC(=O)[C@H](CC(C)C)NC(=O)[C@H](CCC(N)=O)NC(=O)[C@H](C)NC(=O)[C@H](Cc2c[nH]c3ccccc23)NC(=O)[C@H](Cc2ccc(O)cc2)NC(=O)[C@H](C)NC1=O)[C@@H](C)O (single isomer, unassigned) [compound 213] | 6.00 to 7.00 | 7.00 to 8.00 | > 8.00 | > 8.00 |  |  |  | 
15 | CC(=O)N[C@@H](CC(C)C)C(=O)N[C@H](C(=O)N[C@@H](Cc1ccccc1)C(=O)N[C@]1(C)CCCCCCC=CCCC[C@@](C)(C(=O)N[C@@H](C)C(=O)N[C@@H](C)C(=O)N[C@@H](CC(C)C)C(=O)N[C@H](C)C(N)=O)NC(=O)[C@H](CC(C)C)NC(=O)[C@H](CCC(N)=O)NC(=O)[C@H](C)NC(=O)[C@H](Cc2c[nH]c3ccccc23)NC(=O)[C@H](Cc2ccc(O)cc2)NC(=O)[C@H](C)NC1=O)[C@@H](C)O (single isomer, unassigned) [compound 215] | 6.00 to 7.00 | 7.00 to 8.00 | 7.00 to 8.00 | > 8.00 |  |  |  | 
